Source: patent US20210386705A1, “APPLICATION OF CHIGLITAZAR AND RELATED COMPOUNDS THEREOF” (SHENZHEN CHIPSCREEN BIOSCIENCES CO., LTD., priority 2018, published 2021)

Tests used:
PPARγ = target: T1, PPARγ (Homo sapiens, UniProt P37231); assay: PPAR reporter gene model in L-02 cells, PPARγ; format: cell-based; settings: luciferase reporter, 24 hours drug, read-out: Half-maximal activation concentration of reporter gene AC50, PPARγ
T1 construct: expressed in transfected cells; host or cells: human hepatocyte cell line L-02
T1 sequence (P37231 1-505): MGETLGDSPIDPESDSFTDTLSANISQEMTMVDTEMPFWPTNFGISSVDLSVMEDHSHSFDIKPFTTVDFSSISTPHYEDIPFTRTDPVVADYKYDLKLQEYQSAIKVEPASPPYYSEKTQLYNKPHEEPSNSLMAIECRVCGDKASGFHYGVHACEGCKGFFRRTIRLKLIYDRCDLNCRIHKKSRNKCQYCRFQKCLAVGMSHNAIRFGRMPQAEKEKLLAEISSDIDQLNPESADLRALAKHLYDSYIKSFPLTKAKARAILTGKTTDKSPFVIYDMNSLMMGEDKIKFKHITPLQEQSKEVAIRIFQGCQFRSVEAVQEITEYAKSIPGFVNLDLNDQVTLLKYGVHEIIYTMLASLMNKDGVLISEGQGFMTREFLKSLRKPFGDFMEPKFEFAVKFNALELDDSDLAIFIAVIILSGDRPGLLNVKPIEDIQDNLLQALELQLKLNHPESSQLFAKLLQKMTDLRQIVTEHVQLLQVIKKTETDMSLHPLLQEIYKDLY
T1 sequence (P19793 1-462 partner): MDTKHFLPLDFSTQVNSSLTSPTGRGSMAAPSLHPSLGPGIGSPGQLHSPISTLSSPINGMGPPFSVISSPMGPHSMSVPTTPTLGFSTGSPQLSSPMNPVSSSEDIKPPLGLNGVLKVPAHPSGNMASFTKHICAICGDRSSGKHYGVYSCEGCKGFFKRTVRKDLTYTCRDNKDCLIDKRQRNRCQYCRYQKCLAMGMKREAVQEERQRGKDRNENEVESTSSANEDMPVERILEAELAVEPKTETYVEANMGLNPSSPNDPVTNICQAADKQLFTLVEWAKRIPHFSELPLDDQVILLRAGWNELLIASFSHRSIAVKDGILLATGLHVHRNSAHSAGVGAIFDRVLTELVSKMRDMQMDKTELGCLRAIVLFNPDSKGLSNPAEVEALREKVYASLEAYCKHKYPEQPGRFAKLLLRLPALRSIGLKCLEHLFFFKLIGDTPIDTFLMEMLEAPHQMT
Method: The PPAR reporter gene model comprises three subtypes of expression plasmids, RXR expression plasmid, plasmid with luciferase reporter gene, and GFP expression plasmid as an external reference. The human hepatocyte cell line L-02 cells were seeded into 96-well plates at the density of 15,000 cells/well with about 50% plating rate, followed by culturing for 24 hours at 37° C. […] The fluorescence intensity (at wavelength 485-527 nm) of green fluorescent protein (GFP) in each well was firstly detected as an internal standard by a fluorescence detector, and then 30 μL of luciferase substrates (Promega, E151A) were added to each well. After slightly shaking to mix well, the […] were detected. The relative reporter gene activation intensity was obtained by the ratio of the fluorescence detection signal of the drugs to be tested to that of the solvent control, with both the signals normalized to the internal standard GFP signal. The half-maximal activation (AC50) of the drugs to be tested was calculated with the activity at various concentrations (shown in Table 1).

[1] = test system: CCl4-induced liver fibrosis; assay: Mouse model of carbon tetrachloride induced liver fibrosis; format: in vivo, BALB/c mice; settings: 40, 20 and 10 mg/kg intragastrically, from the fourth week to the 7th week
Method: BALB/c mice were injected intraperitoneally with 25% CCl4 (4 mL/kg body weight) twice a week, which can cause liver damage and chronic liver fibrosis in 3 weeks. The model animals were administered for 6 weeks continuously, and the non-model control group was administered the solvent control olive oil for the same period. Model animals were randomly divided into groups from the third week. The control group was administered solvent (0.2% sodium methylcellulose) intragastrically from the fourth week, and the sodium chiglitazar at high, medium and low dose groups were administered 40, 20, and 10 mg/kg body weight of the active ingredient sodium chiglitazar intragastrically, respectively (Table 4), until the end of the experiment in the 7th week. […]
The liver tissue sections were stained with Picrosirius Red for morphological observation (FIG. 9), and measured by using a semi-automatic digital image analysis system and the measurement software (OsteoMetrics, Inc.). The pathologist single-blindly tested and hand-drew the entire sections, and then measured the fibrosis area on the entire sections in straight lines. The software automatically calculated the total area of the measurement. […]

Compound: O=C(c1ccc(F)cc1)c1ccccc1N[C@@H](Cc1ccc(OCCn2c3ccccc3c3ccccc32)cc1)C(=O)[O-].[Na+] [sodium chiglitazar]
- AC50 (PPARγ): 91 nM
- Inflammatory activity of liver tissues (Metavir score, H&E staining) ([1]; FIGS. 7-8): partially inhibit
- Fibrosis degree of liver tissues (fibrosis area %, Picrosirius Red) ([1]; FIGS. 9-10): partially inhibit
